Measurements taken from paper PMC8620908, “Design, Synthesis, In Vitro Anticancer Evaluation and Molecular Modelling Studies of 3,4,5-Trimethoxyphenyl-Based Derivatives as Dual EGFR/HDAC Hybrid Inhibitors” (Pharmaceuticals, 2021).
“And” between values parts separate entries of the source, which are not always exact repeats. Identical values can stand only once. “Also recorded” adds a separate entry of the source.

How the values were obtained:
[1] = tested on: Bax; assay: Bax level assay in HepG2 cancer cell line; format: cell-based
[2] = tested on: HCT116; assay: Antiproliferative MTT assay, HCT116; conditions: Homo sapiens, HCT-116, read-out: Antiproliferative Activity IC50 ± SEM, HCT116
[3] = target: HDAC2 (Homo sapiens, UniProt Q92769); assay: In vitro HDAC inhibition assay, HDAC2
Sequence of HDAC2 (Q92769 whole entry): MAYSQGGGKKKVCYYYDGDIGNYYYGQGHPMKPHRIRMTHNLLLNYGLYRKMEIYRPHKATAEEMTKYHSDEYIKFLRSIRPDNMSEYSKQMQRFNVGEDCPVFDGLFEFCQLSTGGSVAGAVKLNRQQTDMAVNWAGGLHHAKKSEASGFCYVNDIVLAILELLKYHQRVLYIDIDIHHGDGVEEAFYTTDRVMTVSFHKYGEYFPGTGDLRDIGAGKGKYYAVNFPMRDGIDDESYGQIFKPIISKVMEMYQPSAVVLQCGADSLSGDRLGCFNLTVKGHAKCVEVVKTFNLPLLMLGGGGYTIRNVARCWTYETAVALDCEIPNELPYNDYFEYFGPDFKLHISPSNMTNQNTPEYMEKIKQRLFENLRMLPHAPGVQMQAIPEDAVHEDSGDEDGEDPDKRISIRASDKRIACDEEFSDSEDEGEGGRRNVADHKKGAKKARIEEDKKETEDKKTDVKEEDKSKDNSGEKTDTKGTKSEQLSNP

[4] = tested on: A549; assay: Antiproliferative MTT assay, A549; conditions: Homo sapiens, A549, read-out: Antiproliferative Activity IC50 ± SEM, A549
[5] = target: HDAC1 (Homo sapiens, UniProt Q13547); assay: In vitro HDAC inhibition assay, HDAC1
Sequence of HDAC1 (Q13547 whole entry): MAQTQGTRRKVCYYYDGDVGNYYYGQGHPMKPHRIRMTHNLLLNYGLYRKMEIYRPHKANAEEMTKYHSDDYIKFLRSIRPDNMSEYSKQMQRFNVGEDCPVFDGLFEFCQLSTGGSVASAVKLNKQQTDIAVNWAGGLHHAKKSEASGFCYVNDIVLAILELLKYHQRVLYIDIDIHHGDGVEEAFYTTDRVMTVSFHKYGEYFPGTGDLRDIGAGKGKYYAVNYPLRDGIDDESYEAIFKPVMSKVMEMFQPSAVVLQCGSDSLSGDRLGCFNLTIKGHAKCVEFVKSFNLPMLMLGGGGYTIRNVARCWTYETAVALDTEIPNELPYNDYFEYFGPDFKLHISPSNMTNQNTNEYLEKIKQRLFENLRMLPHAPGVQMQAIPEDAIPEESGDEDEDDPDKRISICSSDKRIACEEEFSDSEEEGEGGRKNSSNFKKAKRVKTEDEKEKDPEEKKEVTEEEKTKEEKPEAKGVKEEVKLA

[6] = tested on: Bcl-2; assay: Bcl-2 level assay in HepG2 cancer cell line; format: cell-based; conditions: HepG2, versus control
[7] = tested on: HepG2; assay: Antiproliferative MTT assay, HepG2; conditions: Homo sapiens, HepG2, read-out: Antiproliferative Activity IC50 ± SEM, HepG2
[8] = tested on: HepG2 cancer cell line; assay: Flow cytometric cell cycle analysis; format: cell-based
[9] = target: HDAC4 (Homo sapiens, UniProt P56524); assay: In vitro HDAC inhibition assay, HDAC4
Sequence of HDAC4 (P56524 whole entry): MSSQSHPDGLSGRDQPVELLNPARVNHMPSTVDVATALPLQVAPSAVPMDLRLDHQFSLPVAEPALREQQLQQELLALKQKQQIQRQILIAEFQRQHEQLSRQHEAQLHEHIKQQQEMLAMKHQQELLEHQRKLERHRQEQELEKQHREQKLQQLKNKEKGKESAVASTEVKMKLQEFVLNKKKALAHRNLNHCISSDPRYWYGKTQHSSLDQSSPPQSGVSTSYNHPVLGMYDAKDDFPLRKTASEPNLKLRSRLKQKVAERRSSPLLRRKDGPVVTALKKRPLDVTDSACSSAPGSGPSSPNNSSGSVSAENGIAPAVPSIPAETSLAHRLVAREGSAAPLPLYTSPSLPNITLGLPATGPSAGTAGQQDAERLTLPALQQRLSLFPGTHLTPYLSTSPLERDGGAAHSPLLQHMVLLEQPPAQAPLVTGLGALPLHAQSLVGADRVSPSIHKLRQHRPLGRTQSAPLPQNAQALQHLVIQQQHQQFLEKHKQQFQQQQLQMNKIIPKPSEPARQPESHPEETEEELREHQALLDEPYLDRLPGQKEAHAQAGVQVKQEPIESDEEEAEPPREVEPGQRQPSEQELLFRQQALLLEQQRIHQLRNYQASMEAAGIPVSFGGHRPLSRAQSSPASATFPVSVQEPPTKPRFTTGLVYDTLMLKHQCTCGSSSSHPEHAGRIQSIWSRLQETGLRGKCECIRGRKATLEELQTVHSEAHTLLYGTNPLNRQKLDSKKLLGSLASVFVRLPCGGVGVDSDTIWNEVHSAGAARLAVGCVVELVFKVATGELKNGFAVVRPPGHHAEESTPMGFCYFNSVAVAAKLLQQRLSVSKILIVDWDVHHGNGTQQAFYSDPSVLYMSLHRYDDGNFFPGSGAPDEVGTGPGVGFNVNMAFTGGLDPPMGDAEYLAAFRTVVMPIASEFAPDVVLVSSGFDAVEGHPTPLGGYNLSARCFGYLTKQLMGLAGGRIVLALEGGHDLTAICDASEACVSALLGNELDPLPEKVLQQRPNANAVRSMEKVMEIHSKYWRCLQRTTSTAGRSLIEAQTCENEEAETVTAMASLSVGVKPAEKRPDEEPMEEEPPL

[10] = tested on: MCF-7; assay: Antiproliferative MTT assay, MCF-7; conditions: Homo sapiens, MCF7, read-out: Antiproliferative Activity IC50 ± SEM, MCF-7
[11] = target: T1, HDAC6 (Homo sapiens, UniProt Q9UBN7); assay: In vitro HDAC inhibition assay, HDAC6
T1 sequence (Q9UBN7 1-1215): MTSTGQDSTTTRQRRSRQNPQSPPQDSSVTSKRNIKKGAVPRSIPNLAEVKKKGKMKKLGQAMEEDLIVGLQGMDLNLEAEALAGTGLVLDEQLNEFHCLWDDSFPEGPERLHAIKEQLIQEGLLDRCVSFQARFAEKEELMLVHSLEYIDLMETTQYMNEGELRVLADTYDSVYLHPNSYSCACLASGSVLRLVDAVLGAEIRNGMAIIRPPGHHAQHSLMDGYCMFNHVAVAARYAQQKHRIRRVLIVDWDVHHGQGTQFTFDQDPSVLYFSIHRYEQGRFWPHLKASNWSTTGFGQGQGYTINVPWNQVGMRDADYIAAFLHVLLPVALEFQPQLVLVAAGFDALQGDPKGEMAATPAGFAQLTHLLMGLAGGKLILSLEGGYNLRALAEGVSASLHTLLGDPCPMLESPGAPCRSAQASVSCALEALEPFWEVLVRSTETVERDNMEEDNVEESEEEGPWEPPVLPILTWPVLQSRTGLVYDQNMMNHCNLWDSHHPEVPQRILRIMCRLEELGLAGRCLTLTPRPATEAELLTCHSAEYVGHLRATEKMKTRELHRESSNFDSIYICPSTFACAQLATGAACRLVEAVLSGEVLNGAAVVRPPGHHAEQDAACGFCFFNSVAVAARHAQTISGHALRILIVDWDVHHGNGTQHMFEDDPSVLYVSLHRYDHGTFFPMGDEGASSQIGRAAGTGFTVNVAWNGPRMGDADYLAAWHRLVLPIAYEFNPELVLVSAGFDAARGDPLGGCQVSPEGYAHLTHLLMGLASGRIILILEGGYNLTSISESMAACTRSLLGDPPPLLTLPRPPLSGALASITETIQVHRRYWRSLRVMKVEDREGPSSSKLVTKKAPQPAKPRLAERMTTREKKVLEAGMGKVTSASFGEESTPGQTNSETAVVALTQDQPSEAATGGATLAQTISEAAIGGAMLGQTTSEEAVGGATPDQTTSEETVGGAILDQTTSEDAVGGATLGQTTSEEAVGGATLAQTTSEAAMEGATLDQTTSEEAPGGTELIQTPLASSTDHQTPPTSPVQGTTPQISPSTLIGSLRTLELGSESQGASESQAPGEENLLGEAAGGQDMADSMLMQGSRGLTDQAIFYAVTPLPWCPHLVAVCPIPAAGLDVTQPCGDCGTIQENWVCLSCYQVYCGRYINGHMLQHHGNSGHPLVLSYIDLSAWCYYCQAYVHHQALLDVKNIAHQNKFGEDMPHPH

[12] = target: EGFR (Homo sapiens, UniProt P00533); assay: EGFR-TK inhibition, cell-free assay; format: biochemical
Sequence of EGFR (Homo sapiens, UniProt P00533) (P00533 25-1210): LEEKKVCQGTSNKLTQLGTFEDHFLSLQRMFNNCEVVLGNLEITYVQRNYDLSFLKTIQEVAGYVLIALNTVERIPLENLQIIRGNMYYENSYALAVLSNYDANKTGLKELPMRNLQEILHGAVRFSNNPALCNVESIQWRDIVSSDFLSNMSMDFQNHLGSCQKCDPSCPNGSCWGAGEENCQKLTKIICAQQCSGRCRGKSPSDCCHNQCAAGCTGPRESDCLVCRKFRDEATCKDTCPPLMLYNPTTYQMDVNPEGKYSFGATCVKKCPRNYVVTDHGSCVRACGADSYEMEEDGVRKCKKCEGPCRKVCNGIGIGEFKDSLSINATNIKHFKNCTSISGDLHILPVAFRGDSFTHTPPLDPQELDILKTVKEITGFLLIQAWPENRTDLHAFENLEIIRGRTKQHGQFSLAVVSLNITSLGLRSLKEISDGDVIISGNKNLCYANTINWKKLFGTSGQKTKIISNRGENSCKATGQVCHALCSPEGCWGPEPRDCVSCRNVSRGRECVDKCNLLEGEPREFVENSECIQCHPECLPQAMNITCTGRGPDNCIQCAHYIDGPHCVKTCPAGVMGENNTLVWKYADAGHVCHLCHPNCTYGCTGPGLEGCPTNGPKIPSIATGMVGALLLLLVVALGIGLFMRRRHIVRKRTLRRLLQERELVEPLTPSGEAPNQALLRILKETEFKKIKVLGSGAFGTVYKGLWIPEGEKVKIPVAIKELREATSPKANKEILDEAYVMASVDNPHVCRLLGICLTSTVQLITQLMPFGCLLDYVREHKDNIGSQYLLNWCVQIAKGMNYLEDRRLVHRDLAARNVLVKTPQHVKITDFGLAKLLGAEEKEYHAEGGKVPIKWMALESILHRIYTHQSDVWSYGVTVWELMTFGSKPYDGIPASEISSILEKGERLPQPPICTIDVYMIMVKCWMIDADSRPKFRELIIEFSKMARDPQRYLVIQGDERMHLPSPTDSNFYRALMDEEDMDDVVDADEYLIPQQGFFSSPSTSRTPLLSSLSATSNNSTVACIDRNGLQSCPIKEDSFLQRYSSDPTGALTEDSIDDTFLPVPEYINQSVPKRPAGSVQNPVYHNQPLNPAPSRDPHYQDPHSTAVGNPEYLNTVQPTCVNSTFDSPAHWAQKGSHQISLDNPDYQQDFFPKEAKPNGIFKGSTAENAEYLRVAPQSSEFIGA

[13] = tested on: HDAC6; assay: Western blot assay, HDAC6 in HepG2; format: cell-based; conditions: HepG2, 4b used at its IC50 of 0.536 µM
Method: (§1) Western blot assay was carried out according to the previously reported protocol.

[14] = tested on: EGFR; assay: Western blot assay, EGFR in HepG2; format: cell-based; conditions: HepG2, 4b used at its IC50 of 0.536 µM
Method: as §1

[15] = tested on: HepG2 cancer cell line; assay: Cell apoptosis assay, Annexin V/PI flow cytometry; format: cell-based
Method: Apoptosis was determined by flow cytometry based on the Annexin-V-fluoresce in isothiocyanate (FITC) and propidium iodide (PI) staining kit (BD Pharmingen, San Diego, CA, USA). See Section 4.2.5 in Supplementary Materials.
4.2.5. Cell apoptosis assay
Apoptosis was determined by flow cytometry based on the Annexin-V-fluoresce in isothiocyanate (FITC) and propidium iodide (PI) staining kit (BD Pharmingen, San Diego, USA). Apoptotic cells were defined as Annexin-V-positive. Cells were grown to approximately ∼70% confluence and exposed to different concentrations of compounds (0, 2, 4, 6 and8 μmol/L) for 24 h. Treated cells were trypsinized, washed twice with PBS and transferred into micro centrifuge tubes for centrifugation at1000 rpm for 5 min at room temperature, then resuspended in binding buffer, 5 μL of FITC and PI were added to per eppendorf tube, cells were vortexed, incubated for 15 min at room temperature in dark. Subsequently, cells were analyzed by flow cytometry (Becton Dickinson, Franklin Lakes, USA).
4.3. Statistical analysis
Computerized GraphPad Prism software was used to statistically analyzed data using one-way ANOVA test followed by Tukey’s as post ANOVA for multiple comparison at P ≤.05. Data were presented as mean ± SEM. […]

[16] = tested on: Caspase-3; assay: Caspase-3 level assay in HepG2 cancer cell line; format: cell-based, human
[17] = target: T2, HDAC8 (Homo sapiens, UniProt Q9BY41); assay: In vitro HDAC inhibition assay, HDAC8
T2 sequence (Q9BY41 1-377): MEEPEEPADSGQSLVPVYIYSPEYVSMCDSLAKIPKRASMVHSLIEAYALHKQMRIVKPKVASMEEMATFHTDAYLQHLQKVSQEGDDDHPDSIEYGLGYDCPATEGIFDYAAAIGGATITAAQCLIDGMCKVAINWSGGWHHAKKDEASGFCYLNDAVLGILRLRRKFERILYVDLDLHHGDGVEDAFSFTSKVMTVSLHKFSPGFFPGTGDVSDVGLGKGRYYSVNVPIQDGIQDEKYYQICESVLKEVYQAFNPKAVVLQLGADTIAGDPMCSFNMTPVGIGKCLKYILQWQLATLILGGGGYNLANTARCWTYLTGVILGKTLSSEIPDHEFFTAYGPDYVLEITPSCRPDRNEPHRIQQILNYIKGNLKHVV

[18] = tested on: Caspase-8; assay: Caspase-8 level assay in HepG2 cancer cell line; format: cell-based, human

## COc1cc(/C=C/C(=O)c2ccc(OCCCCCC(=O)NO)cc2)cc(OC)c1OC [4b, (E)-N-Hydroxy-6-(4-(3-(3,4,5-Trimethoxyphenyl)Acryloyl)Phenoxy) Hexanamide]
[1]; HepG2, versus control
  Bax Fold Change: 3.75 fold
[1]; HepG2 cancer cell line
  Bax Conc: 398.9 ± 14.3 pg/mL
[2]
  IC50: 1210 ± 70 nM
[3]
  IC50: 168 nM
[4]
  IC50: 797 ± 40 nM
[5]
  IC50: 148 nM
[6]
  Bcl-2 Fold Change: 0.42 fold
[7]
  IC50: 536 ± 30 nM
[8]
  Comment (cell cycle arrest): cell cycle arrest at G1/S phase; also recorded: cell growth arrest at G1/S
[8]; control 2.16
  %Pre-G1: 47.21%
[8]; control 20.45
  %G2/M: 7.85%
[8]; control 36.58
  %S: 39.11%
[8]; control 42.97
  %G0–G1: 53.04%
[9]
  IC50: 5850 nM
[10]
  IC50: 621 ± 30 nM
[11]
  IC50: 60 nM
[12]
  IC50: 63 ± 2 nM
[13]
  HDAC6 expression (Western blot): decrease
[14]
  EGFR expression (Western blot): decrease
[15]; control 0.12
  Apoptosis Late: 24.67
[15]; control 0.12%
  percentage of cell apoptosis (late; upper right quadrant Annexin V/PI): 24.67%
[15]; control 0.34
  Apoptosis Early: 9.33
[15]; control 1.7
  Necrosis: 13.21
[15]; control 2.16
  Apoptosis Total: 47.21
[16]
  Caspase-3 Conc: 483.2 pg/mL and 483.2 ± 14.72 pg/mL
[17]
  IC50: 2260 nM
[18]; HepG2, versus control
  Caspase-8 Fold Change: 3.15 fold
[18]; HepG2 cancer cell line
  Caspase-8 Conc: 1.078 ng/mL and 1.078 ± 0.046 ng/mL
